Data reported in patent publication US9096581B2, “Fluoroethyl thiamine or salts thereof and application thereof in preparation of anticoccidial drugs” (GUANGZHOU ORIGMOL FEED-ADDITIVE CO., LTD, priority 2012, dated 2015).
Entries after “also recorded” stand apart in the source; their conditions may differ. Structures can show the parent of a compound that is named as a salt.

Key:
[1] = system: Eimeria tenella JM strains (amprolium-resistant); assay: Effect on amprolium-resistant coccidium strain in chickens (Embodiment 4); assay type: in vivo; settings: 125 ppm in feed; for number of oocysts in cecum / lesion value / the average weight gain: 7th day; for lesion value: cecum, scale 0-40; for survival rate / the average weight gain / bloody feces scoring: chickens; for bloody feces scoring: 5 days after infecting, score 0-4; for oocyst value: converted per Table 2; for relative weight gain rate: vs non-infected non-drug control
Experimental: (§1) 1-day-old Lingnan yellow chickens, purchased from Poultry Research Unit, Bureau of Animal Husbandry, Guangdong Academy of Agricultural Sciences, bred under coccidium-free environment, and subjected to grouping and experiment after no coccidium oocyst is found in feces through microscopic examination when the chickens are 14 days old.
Eimeria tenella JM strains, separated and purified from a chicken farm in Jiangmen, Guangdong, which are tested and identified to be amprolium-resistant coccidium strains. Breeding and amplifying in chickens before the experiment, collecting fresh eggs, sporulating, and preserving at 4° C. for later use.
(§2) Weighing the 14-day-old experiment chickens one by one, rejecting emaciated chickens or overweighted chickens, selecting healthy chickens of which the individual body weight difference is within 20 g, and dividing into 4 groups with 30 chickens in each group. Groups 1 and 2 are respectively a non-drug-applied and non-coccidium-killed control group and a coccidium-infected and non-drug-applied control group, and Groups 3 and 4 are respectively added with fluoroethyl thiamine hydrochloride and amprolium. Feeding with feed containing different drugs on the day of experiment grouping according to Table 6, enabling the chickens to freely take in the feed, and feeding the chickens until the experiment ends.
(§3) Except the non-coccidium-infected and non-drug-applied control group, giving each experiment chicken in each experiment group with 1.0×10^5 eimeria tenella sporulated oocysts via the crop on the next day of the grouping day. During experiment, observing and recording the spirit, appetite, bloody feces situation, death count and the like of the chickens every day. Performing bloody feces scoring on the chickens in each group 5 days after infecting. On the 7th day, respectively weighing all the chickens in each group, then autopsying them, observing cecum lesions and counting the oocysts in the cecum.
(§4) The evaluation standard is the same with Embodiment 2.

[2] = system: Eimeria tenella GD strains; assay: Comparison with other anticoccidial drugs in chickens infected with Eimeria tenella GD (Embodiment 3); assay type: in vivo; set-up: oocyst value: scale not given here; settings: for anticoccidial index (ACI) / number of oocysts in cecum / lesion value / survival rate / average weight gain / bloody feces scoring / oocyst value / relative weight gain rate: 125 ppm in feed; for number of oocysts in cecum / lesion value / average weight gain: 7th day; for lesion value: cecum, scale 0-40; for survival rate / average weight gain / bloody feces scoring: chickens; for bloody feces scoring: 5 days after infecting, score 0-4; for oocyst value: converted per Table 2; for relative weight gain rate: vs non-infected non-drug control
Description: as §1, with “to” for “to grouping and”, “old. Perfect compound feed for chickens: prepared by Huizhou Yuantai Feed Co. Ltd., and containing no antibacterial or anticoccidial additive.” for “old.”
Eimeria tenella GD strains, having no resistance to various anticoccidial drugs. Breeding and amplifying in one chicken before the experiment, collecting fresh oocysts, sporulating, and preserving at 4° C. for later use.
as §2, with “into 6” for “into 4”, “Groups 3-6” for “Groups 3 and 4”, “with different anticoccidial drugs according to Table 4.” for “with fluoroethyl thiamine hydrochloride and amprolium.”, “experiment grouping,” for “experiment grouping according to Table 6,”
as §3, with “group with 2.5×10^5 eimeria tenella” for “group with 1.0×10^5 eimeria tenella”, “crop on next day” for “crop on the next day”
as §4

| Structure (SMILES) | anticoccidial index (ACI) [1] | effect on amprolium-resistant strain, in words [1] | number of oocysts in cecum [1] | lesion value [1] | survival rate [1] [%] | the average weight gain [1] [g/chicken] | bloody feces scoring [1] | oocyst value [1] | relative weight gain rate [1] [%] | anticoccidial index (ACI) [2] | number of oocysts in cecum [2] | lesion value [2] | survival rate [2] [%] | average weight gain [2] [g/chicken] | bloody feces scoring [2] | oocyst value [2] | relative weight gain rate [2] [%] | comparison with the other anticoccidial drugs ([2]; 125 ppm in feed (maduramicin 5 ppm), hydrochloride) |
| --- | --- | --- | --- | --- | --- | --- | --- | --- | --- | --- | --- | --- | --- | --- | --- | --- | --- | --- |
| CCCc1ncc(C[n+]2ccccc2C)c(N)n1 [amprolium, Amprolium, reference compound] | 93.5 | eimeria tenella JM strain has resistance to amprolium | 2.878 ×10^6/chicken | 28.4 | 60 | 135.6 | 4 | 10 | 71.9 | 191.2 | 0.566 ×10^6/chicken | 4 | 100 | 166.3 | 0 | 1 | 96.2 | – |
| CCc1ncc(C[n+]2csc(CCF)c2C)c(N)n1 [fluoroethyl thiamine hydrochloride, 3-[(4-amino-2-ethyl-5-pyrimidyl)-methylene]-5-(2-fluoroethyl)-4-methyl thiazole chloride hydrochloride] | 196.8 | can protect the experiment chickens from being infected by the strains | 0 ×10^6/chicken | 0 | 100 | 182.7 | 0 | 0 | 96.8 | 201.6 | 0 ×10^6/chicken | 0 | 100 | 175.6 | 0 | 0 | 101.6 | superior to amprolium and maduramicin in lesion and oocyst value; also recorded: superior to nicarbazin in weight gain |
